Consider three compounds from ChEMBL document CHEMBL1142404, “Synthesis of 2-modified aristeromycins and their analogs as potent inhibitors against Plasmodium falciparum S-adenosyl-L-homocysteine hydrolase” (Bioorg Med Chem, 2008).

As usually defined, the IC50 is the concentration needed to halve the response being measured.

In data set [1] the target is Adenosylhomocysteinase (Plasmodium falciparum 3D7, UniProt P50250). Nature of the data set: Inhibition of Plasmodium falciparum SAHH.
The subject of the next data set is adenosine deaminase. Kind of data set: Metabolic stability in presence of calf intestinal adenosine deaminase assessed as compound remaining after 15 mins. The class given is ADME. To be noted: cattle, read-out: Activity.
Data set [2] deals with Adenosylhomocysteinase (Homo sapiens, UniProt P23526). Kind of data set: Inhibition of human SAHH.
Adenosylhomocysteinase (Homo sapiens, UniProt P23526), sequence (P23526 whole entry): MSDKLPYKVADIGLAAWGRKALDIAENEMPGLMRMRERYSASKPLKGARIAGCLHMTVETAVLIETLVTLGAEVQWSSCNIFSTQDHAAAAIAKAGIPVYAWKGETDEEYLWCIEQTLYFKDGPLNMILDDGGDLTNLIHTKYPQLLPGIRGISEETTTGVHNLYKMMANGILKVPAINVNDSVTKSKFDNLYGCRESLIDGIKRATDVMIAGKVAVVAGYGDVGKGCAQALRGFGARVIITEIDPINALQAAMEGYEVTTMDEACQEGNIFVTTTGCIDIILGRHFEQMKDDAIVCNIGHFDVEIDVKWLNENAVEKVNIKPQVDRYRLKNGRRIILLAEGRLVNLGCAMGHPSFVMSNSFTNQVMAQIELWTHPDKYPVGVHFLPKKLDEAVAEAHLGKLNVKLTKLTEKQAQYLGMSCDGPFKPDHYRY

Adenosylhomocysteinase (Plasmodium falciparum 3D7, UniProt P50250), sequence (P50250 whole entry): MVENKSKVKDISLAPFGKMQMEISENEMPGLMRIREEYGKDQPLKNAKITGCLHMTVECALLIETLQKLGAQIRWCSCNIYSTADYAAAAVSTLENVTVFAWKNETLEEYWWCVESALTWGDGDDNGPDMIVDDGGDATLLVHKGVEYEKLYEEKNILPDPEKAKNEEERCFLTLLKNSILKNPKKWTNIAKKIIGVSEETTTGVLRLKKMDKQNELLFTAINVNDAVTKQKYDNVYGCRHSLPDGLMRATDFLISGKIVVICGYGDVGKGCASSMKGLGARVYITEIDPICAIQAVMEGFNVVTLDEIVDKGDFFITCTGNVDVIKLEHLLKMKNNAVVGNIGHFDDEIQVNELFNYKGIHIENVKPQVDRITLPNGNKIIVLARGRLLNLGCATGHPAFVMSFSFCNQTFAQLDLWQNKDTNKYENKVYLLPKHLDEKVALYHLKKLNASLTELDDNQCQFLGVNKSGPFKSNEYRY

Regarding `Nc1nc(F)nc2c1ncn2[C@@H]1C[C@H](CO)[C@@H](O)[C@H]1O`, the values for the half-inhibitory concentration (IC50) against Adenosylhomocysteinase [1] and against Adenosylhomocysteinase [2] were 1.98 µM and 47.2 µM, respectively. The remaining at 0.25 h in the data set with adenosine deaminase came out at 99.5%.

For the compound `Nc1nc(N)c2ncn([C@@H]3C[C@H](CO)[C@@H](O)[C@H]3O)c2n1`, the concentration for half-maximal inhibition (IC50) worked out at 4.51 µM against Adenosylhomocysteinase [1] and 90.7 µM at Adenosylhomocysteinase [2]. The remaining at 0.25 h in the data set with adenosine deaminase came to 95.2%.

On to `Nc1ncnc2c1ncn2[C@@H]1C[C@H](CO)[C@@H](O)[C@H]1O` [ARISTEROMYCIN], for which the remaining at 0.25 h in the data set on adenosine deaminase came to 22.4%.
